Source: patent publication US7211422B2, “Polypeptide having α-isomaltosylglucosaccharide synthase activity” (Kabushiki Kaisha Hayashibara Seibutsu Kagaku Kenkyujo, priority 2001, dated 2007)

How the values were obtained:
[1] = tested on: α-isomaltosylglucosaccharide-forming enzyme from Bacillus globisporus N75; assay: Action on saccharides (TLC before and after enzymatic reaction); type: biochemical; set-up: key: −: it showed no change; +: it showed a slight reduction of the color spot of the substrate and the formation of other reaction product; ++: it showed a high reduction of the color spot of the substrate and the formationof other reaction product; +++: it showed a substantial disappearance of the substrate spot and the formation of other reaction product; conditions: two units/g substrate, substrate 2% (w/v), 30° C., pH 6.0, 24 hours
Procedure: (§1) It was tested whether saccharides can be used as substrates for the polypeptide of α-isomaltosylglucosaccharide-forming enzyme of the present invention. For the purpose, a solution of maltose, maltotriose, maltotetraose, maltopentaose, maltohexaose, maltoheptaose, isomaltose, isomaltotriose, panose, isopanose, trehalose, kojibiose, nigerose, neotrehalose, cellobiose, gentibiose, maltitol, maltotriitol, lactose, sucrose, erlose, selaginose, maltosyl glucoside, or isomaltosyl glucoside was prepared.
(§2) To each of the above solutions was added two units/g substrate of a purified polypeptide specimen of α-isomaltosylglucosaccharide-forming enzyme from either Bacillus globisporus C11 obtained by the method in Experiment 1-3, Bacillus globisporus N75 obtained by the method in Experiment 2-3, or Arthrobacter globiformis A19 obtained by the method in Experiment 3-3, and the resulting each solution was adjusted to give a substrate concentration of 2% (w/v) and incubated at 30° C. and pH 6.0, except for using pH 8.4 for the enzyme from Arthrobacter globiformis A19, for 24 hours. In order to analyze the saccharides in the reaction mixture before and after the enzymatic reaction, silica gel thin-layer chromatography (hereinafter, abbreviated as “TLC”) was carried out. After two-times development using, as a developer, a mixture solution of n-butanol, pyridine, and water (=6:4:1), and, as a thin-layer plate, “KIESELGEL 60”, an aluminum plate (20×20 cm) for TLC commercialized by Merck & Co., Inc., Rahway, USA, the saccharides in the reaction mixture were examined whether the enzyme acted or not by the coloration of sugars by the sulfuric acid-methanol method.

[2] = tested on: α-isomaltosylglucosaccharide-forming enzyme from Bacillus globisporus C11; assay: as above; type: biochemical; set-up: key: −: it showed no change; +: it showed a slight reduction of the color spot of the substrate and the formation of other reaction product; ++: it showed a high reduction of the color spot of the substrate and the formationof other reaction product; +++: it showed a substantial disappearance of the substrate spot and the formation of other reaction product; conditions: two units/g substrate, substrate 2% (w/v), 30° C., pH 6.0, 24 hours
Procedure: as §1, §2

[3] = tested on: α-isomaltosylglucosaccharide-forming enzyme from Arthrobacter globiformis A19; assay: as above; type: biochemical; set-up: key: −: it showed no change; +: it showed a slight reduction of the color spot of the substrate and the formation of other reaction product; ++: it showed a high reduction of the color spot of the substrate and the formationof other reaction product; +++: it showed a substantial disappearance of the substrate spot and the formation of other reaction product; conditions: two units/g substrate, substrate 2% (w/v), 30° C., pH 8.4, 24 hours
Procedure: as §1, §2

[4] = tested on: polypeptide having α-isomaltosylglucosaccharide-forming enzyme activity; assay: Action on saccharides, summary in words for the polypeptide in general; type: biochemical; conditions: summary of Table 7
Procedure: as §1, §2

[5] = tested on: polypeptide having α-isomaltosylglucosaccharide-forming enzyme activity, obtained in Experiment 1-3; assay: Reaction product from maltooligosaccharide (sugar composition by HPLC); type: biochemical, Bacillus globisporus C11; set-up: unit not given here; conditions: 1% (w/v) substrate, 35° C., pH 6.0, 8 hours
Procedure: To an aqueous solution containing one percent (w/v) of maltose, maltotriose, maltotetraose, or maltopentaose as a substrate was added the polypeptide having α-isomaltosylglucosaccgaride-forming enzyme activity, obtained in Experiment 1-3, in an amount of two units/g-solid for maltose and maltotriose, 0.2 unit/g-solid for maltotetraose, and 0.1 unit/g-solid for maltopentaose, followed by incubation at 35° C. and pH 6.0 for 8 hours. After stopping the enzymatic reaction by a 10-minutes incubation, sugar compositions in the reaction mixture were measured by HPLC using “YMC Pack ODS-AQ303”, a column commercialized by YMC Co., Ltd., Tokyo, Japan, at a column temperature of 40° C. and a flow rate of 0.5 ml/minutes of water, and using as a detector “RI-8012”, a differential refractometer commercialized by Tosoh Corporation, Tokyo, Japan.

Structure (SMILES) | Enzyme action, N75 enzyme [1] | Enzyme action, C11 enzyme [2] | Enzyme action, A19 enzyme [3] | Action of the polypeptide on the saccharide (in words) [4] | Sugar composition of reaction mixture, substrate Maltopentaose ([5]; 0.1 unit/g-solid) | Sugar composition of reaction mixture, substrate Maltotetraose ([5]; 0.2 unit/g-solid) | Sugar composition of reaction mixture, substrate Maltotriose ([5]; two units/g-solid) | Sugar composition of reaction mixture, substrate Mlatose ([5]; two units/g-solid)
OC[C@H]1O[C@@](CO)(O[C@H]2O[C@H](CO)[C@@H](O[C@H]3O[C@H](CO)[C@@H](O)[C@H](O)[C@H]3O)[C@H](O)[C@H]2O)[C@@H](O)[C@@H]1O [Erlose, erlose] | + | + | + | slightly acted |  |  |  | 
OC[C@H]1O[C@H](O[C@H]2C(O)O[C@H](CO)[C@@H](O)[C@@H]2O)[C@H](O)[C@@H](O)[C@@H]1O (stereo partly shown) [Kojibiose, kojibiose] | + | + | + | slightly acted |  |  |  | 
OC[C@H]1O[C@H](O[C@H]2[C@H](O)[C@@H](O)[C@H](O)O[C@@H]2CO)[C@H](O)[C@@H](O)[C@@H]1O [Maltose, maltose] | + | + | + | slightly acted | 0.0 | 0.3 | 17.9 | 78.0
OC[C@@H](O)[C@@H](O[C@H]1O[C@H](CO)[C@@H](O[C@H]2O[C@H](CO)[C@@H](O)[C@H](O)[C@H]2O)[C@H](O)[C@H]1O)[C@H](O)[C@@H](O)CO [Maltotriitol, maltotriitol] | + | + | + | slightly acted |  |  |  | 
OC[C@H]1O[C@@H](O[C@H]2O[C@H](CO)[C@@H](O)[C@H](O)[C@H]2O)[C@H](O)[C@@H](O)[C@@H]1O [Neotrehalose, neotrehalose] | + | + | + | slightly acted |  |  |  | 
OC[C@H]1O[C@H](O[C@H]2[C@H](O)[C@@H](CO)OC(O)[C@@H]2O)[C@H](O)[C@@H](O)[C@@H]1O (stereo partly shown) [Nigerose, nigerose] | + | + | + | slightly acted |  |  |  | 
